Experiments:
[1] = system: rat; settings: Prenatal developmental toxicity study, sprague dawley, Oral, Gavage/Intubation, dose end: 16 GD
[2] = system: rabbit; settings: Prenatal developmental toxicity study, new zealand white, Dermal, Topical, dose end: 18 GD
[3] = system: rat; settings: Prenatal developmental toxicity study, sprague dawley, Oral, Gavage/Intubation, dose end: 16 GD; remark: listed apart in the source
[4] = system: rat; settings: Prenatal developmental toxicity study, wistar, Oral, Gavage/Intubation, dose end: 17 GD
[5] = system: guinea-pig; settings: Subchronic dermal toxicity, hartley, Topical, dose end: 13 week, group: systemic
[6] = system: mouse; settings: Subchronic oral toxicity in rodents, b6c3f1, Feed, dose end: 13 week
[7] = system: mouse; settings: Fertility (Segment I); cd1; Oral; Gavage/Intubation; dose end: 1 generation; group: parental; systemic / pathology gross / sperm measure / sperm morphology
[8] = system: rat; settings: Subchronic oral toxicity in rodents, fischer, Feed, dose end: 13 week
[9] = system: dog; settings: Subchronic oral toxicity in nonrodent, beagle, Capsule, dose end: 13 week, group: systemic, systemic / organ weight / thyroid gland / absolute + systemic / organ weight / thyroid gland / relative to body weight
[10] = system: dog; settings: Chronic toxicity, beagle, Oral, Capsule, dose end: 52 week, group: systemic
[11] = system: mouse; settings: Carcinogenicity; cd1; Oral; Feed; dose end: 105 week; group: systemic; systemic / pathology microscopic / liver / adenocarcinoma + systemic / pathology microscopic / liver / adenoma + systemic / pathology …
[12] = system: mouse; settings: Combined chronic toxicity/carcinogenicity; other; Oral; Feed; dose end: 99 week; group: systemic; systemic / hematology / erythrocyte (rbc) count differential / erythrocyte (rbc) + systemic / hematology / hematocrit (hct) / hematocrit (…
[13] = system: rat; settings: Subchronic oral toxicity in rodents, sprague dawley, Feed, dose end: 90 day, group: systemic, systemic / organ weight / liver / absolute + systemic / organ weight / liver / relative to body weight + systemic / clinical chemistry / …
[14] = system: rat; settings: Prenatal developmental toxicity study, sprague dawley, Oral, Gavage/Intubation, dose end: 15 GD
[15] = system: rabbit; settings: Prenatal developmental toxicity study, new zealand white, Oral, Gavage/Intubation, dose end: 19 GD
[16] = system: rat; settings: Combined chronic toxicity/carcinogenicity, fischer, Oral, Feed, dose end: 24 month, group: systemic
[17] = group: developmental, developmental / developmental malformation / bone / misaligned + developmental / developmental malformation / bone / ossification sites + …
[18] = group: maternal, reproductive / reproductive performance / resorptions / resorptions + systemic / in life observation / body weight / body weight + systemic…
[19] = group: developmental, developmental / developmental malformation / bone / delayed ossification + developmental / developmental malformation / bone / knobby + …
[20] = group: maternal, reproductive / reproductive performance / resorptions / resorptions + systemic / hematology / erythrocyte (rbc) count differential / …
[21] = group: developmental, developmental / developmental malformation / aortic arch / [other] + developmental / developmental malformation / aortic arch / malformation…
[22] = group: developmental, developmental / developmental malformation / bone / ossification sites + developmental / developmental malformation / bone / supernumerary…
[23] = group: maternal, reproductive / reproductive performance / resorptions / resorptions + reproductive / offspring survival early / litter size / litter size
[24] = group: developmental, systemic / in life observation / body weight / offspring (pup) weight gain + developmental / developmental malformation / aortic arch / …
[25] = group: maternal, reproductive / offspring survival early / live fetuses / live fetuses + reproductive / offspring survival early / litter size / litter size…
[26] = systemic / clinical chemistry / lactic acid dehydrogenase (ldh) / lactic acid dehydrogenase (ldh) + systemic / hematology / mean corpuscular…
[27] = systemic / pathology microscopic / liver / fatty change + systemic / pathology microscopic / liver / necrosis + systemic / urinalysis / …
[28] = group: maternal, reproductive / reproductive performance / estrous cycle / length
[29] = group: systemic, systemic / in life observation / body weight / body weight + systemic / in life observation / clinical signs / drooping eyelids (ptosis) + …
[30] = group: systemic, systemic / clinical chemistry / alkaline phosphatase (alp/alk) / alkaline phosphatase (alp/alk) + systemic / clinical chemistry / bile acids…
[31] = systemic / organ weight / liver / absolute + systemic / organ weight / liver / relative to body weight
[32] = systemic / organ weight / liver / absolute + systemic / organ weight / liver / relative to body weight + systemic / clinical chemistry / …
[33] = group: developmental, developmental / developmental malformation / bone / incomplete ossification + systemic / in life observation / body weight / fetal weight
[34] = group: maternal, systemic / in life observation / body weight / body weight + systemic / in life observation / body weight / body weight gain + reproductive…
[35] = group: developmental, developmental / developmental malformation / limb / hyperflexion + systemic / in life observation / body weight / fetal weight + …
[36] = group: maternal, systemic / in life observation / body weight / body weight gain + systemic / in life observation / food consumption / food consumption
[37] = group: maternal, systemic / in life observation / body weight / body weight gain + systemic / in life observation / food consumption / food consumption + …
[38] = systemic / organ weight / liver / absolute
[39] = systemic / organ weight / liver / absolute + systemic / pathology microscopic / liver / adenocarcinoma + systemic / pathology microscopic / …

With COCCOCCO [Diethylene glycol monomethyl ether] the LOAEL [1, 17] was over 5180 mg/kg/day, the NEL [1, 17] was 1000 mg/kg/day and the NOAEL [1, 17] was at least 5180 mg/kg/day. For the same molecule, the LEL ([1]; group: developmental, developmental / developmental malformation / bone / ossification sites) was 1500 mg/kg/day, the LOAEL [1, 18] was over 5180 mg/kg/day and the NEL [1, 18] was 2240 mg/kg/day. For the same molecule, the NOAEL [1, 18] was at least 5180 mg/kg/day, the LEL ([1]; group: maternal, systemic / in life observation / body weight / body weight + systemic / in life observation / food consumption / food consumption + …) was 3340 mg/kg/day and the LEL [2, 19] was 250 mg/kg/day. The LOAEL [2, 19] was over 750 mg/kg/day, the NEL [2, 19] was 50 mg/kg/day and the NOAEL [2, 19] was at least 750 mg/kg/day. It also gave an LEL [2, 20] of 750 mg/kg/day, an LOAEL [2, 20] of over 750 mg/kg/day and an NEL [2, 20] of 250 mg/kg/day. The NOAEL [2, 20] was at least 750 mg/kg/day, the LOAEL [3, 21] was over 2160 mg/kg/day and the NOAEL [3, 21] was at least 2160 mg/kg/day. It also gave an LEL [3, 22] of 720 mg/kg/day, an NEL [3, 22] of under 720 mg/kg/day and an NEL ([3]; group: maternal, reproductive / reproductive performance / resorptions / resorptions) of 720 mg/kg/day. It also gave an LEL [3, 23] of 2160 mg/kg/day, an LOAEL [3, 23] of over 2160 mg/kg/day and an NOAEL [3, 23] of at least 2160 mg/kg/day. It also gave an NEL ([4]; group: developmental, systemic / in life observation / body weight / offspring (pup) weight gain) of 200 mg/kg/day, an LOAEL [4, 24] of over 1800 mg/kg/day and an NOAEL [4, 24] of at least 1800 mg/kg/day. The LEL ([4]; group: developmental, systemic / in life observation / body weight / offspring (pup) weight gain + developmental / developmental malformation / bone / …) was 600 mg/kg/day, the LEL ([4]; group: maternal, reproductive / offspring survival early / live fetuses / live fetuses) was 600 mg/kg/day and the NEL ([4]; group: maternal, reproductive / offspring survival early / live fetuses / live fetuses + reproductive / offspring survival early / litter size / litter size) was 200 mg/kg/day. It also gave an LOAEL [4, 25] of over 1800 mg/kg/day, an NOAEL [4, 25] of at least 1800 mg/kg/day and an LOAEL [5, 26] of over 1000 mg/kg/day. It also gave an NOAEL [5, 26] of at least 1000 mg/kg/day, an LEL [5, 27] of 40 mg/kg/day and an NEL [5, 27] of under 40 mg/kg/day.
Work on NC(=Nc1ccccc1)Nc1ccccc1 [1,3-Diphenylguanidine] yielded an LEL [6, 28] of 577 mg/kg/day, an LOAEL [6, 28] of over 577 mg/kg/day and an NEL [6, 28] of 285 mg/kg/day. The NOAEL [6, 28] was at least 577 mg/kg/day, the LOAEL ([6]; group: systemic, systemic / in life observation / body weight / body weight + systemic / in life observation / clinical signs / drooping eyelids (ptosis)) was 231 mg/kg/day and the NEL [6, 29] was 38 mg/kg/day. The NOAEL [6, 29] was 114 mg/kg/day, the LEL ([6]; group: systemic, systemic / organ weight / liver / relative to body weight) was 75 mg/kg/day and the LEL [7] was 16 mg/kg/day. For the same molecule, the LOAEL [7] was over 16 mg/kg/day, the NEL [7] was 4 mg/kg/day and the NOAEL [7] was at least 16 mg/kg/day. It also gave an LEL [8, 28] of 49 mg/kg/day, an LOAEL [8, 28] of over 184 mg/kg/day and an NEL [8, 28] of 32 mg/kg/day. For the same molecule, the NOAEL [8, 28] was at least 184 mg/kg/day, the LEL [8, 30] was 17 mg/kg/day and the LOAEL [8, 30] was 95 mg/kg/day. It also gave an NEL [8, 30] of under 17 mg/kg/day and an NOAEL [8, 30] of 49 mg/kg/day.
CC(C)Oc1cc(-n2nc(C(C)(C)C)oc2=O)c(Cl)cc1Cl [Oxadiazon] gave an LEL [9] of 25 mg/kg/day, an LOAEL [9] of 25 mg/kg/day and an NEL [9] of under 25 mg/kg/day. For the same molecule, the NOAEL [9] was under 25 mg/kg/day, the LEL [10, 31] was 20 mg/kg/day and the LOAEL [10, 31] was 20 mg/kg/day. For the same molecule, the NEL [10, 32] was 5 mg/kg/day, the NOAEL [10, 32] was 5 mg/kg/day and the LEL [11] was 12 mg/kg/day. For the same molecule, the LOAEL [11] was 12 mg/kg/day, the NEL [11] was under 12 mg/kg/day and the NOAEL [11] was under 12 mg/kg/day. The LEL [12] was 0.315 mg/kg/day, the LOAEL [12] was 10.6 mg/kg/day and the NEL [12] was under 0.315 mg/kg/day. The NOAEL [12] was 1.09 mg/kg/day, the LEL [13] was 100 mg/kg/day and the LOAEL [13] was 100 mg/kg/day. The NEL [13] was 25 mg/kg/day, the NOAEL [13] was 25 mg/kg/day and the LEL [14, 33] was 40 mg/kg/day. The LOAEL [14, 33] was 40 mg/kg/day, the NEL [14, 33] was 12 mg/kg/day and the NOAEL [14, 33] was 12 mg/kg/day. For the same molecule, the LOAEL ([14]; group: maternal, systemic / in life observation / body weight / body weight + systemic / in life observation / body weight / body weight gain) was 40 mg/kg/day, the LEL [14, 34] was 40 mg/kg/day and the NEL [14, 34] was 12 mg/kg/day. For the same molecule, the NOAEL [14, 34] was 12 mg/kg/day, the LEL [15, 35] was 180 mg/kg/day and the LOAEL [15, 35] was 180 mg/kg/day. The NEL [15, 35] was 60 mg/kg/day, the NOAEL [15, 35] was 60 mg/kg/day and the LEL [15, 36] was 60 mg/kg/day. The LOAEL [15, 36] was 60 mg/kg/day, the NEL [15, 37] was 20 mg/kg/day and the NOAEL [15, 37] was 20 mg/kg/day. The LEL [16, 38] was 4.8 mg/kg/day, the LOAEL [16, 38] was 4.8 mg/kg/day and the NEL [16, 39] was 0.5 mg/kg/day. It also gave an NOAEL [16, 39] of 0.5 mg/kg/day.

From EPA's ToxRefDB 2
